Data reported in US9155699B2, “Pulmonary delivery for levodopa” (Civitas Therapeutics, Inc., priority 2002, dated 2015).

Assays:
in vivo = settings: plasma
[1] = 120 minutes after administration

**Q.** What does the source list for N[C@@H](Cc1ccc(O)c(O)c1)C(=O)O [L-Dopa, Levodopa]?
**A.** concentration at 2 min (in vivo; inhaled): 5 µg/mL; concentration at 2 min (in vivo; po): 1 µg/mL; plasma level, methods of the invention compared to oral administration [1]: twice as high
